US20060100243A1 (priority 2004, published 2006)
“Also recorded” adds a separate entry of the source. Read-outs that look alike come from different tables or passages of the source.

Columns and labels:
[1] = biological target: T1, recombinant human dopamine transporter (Homo sapiens, UniProt Q01959); assay: dopamine reuptake inhibition in HEK 293 cells; type: cell-based; conditions: for IC50: DOPAMINE DA REUPTAKE (IC50), HEK 293 cells; for NE/DA REUPTAKE: ratio of NE/DA reuptake IC50, selectivity for dopamine over norepinephrine transporter
T1 construct: expressed in transfected cells

[2] = biological target: T2, recombinant human serotonin transporter (Homo sapiens, UniProt P31645); assay: biochemical; type: binding
T2 construct: expressed in transfected cells

[3] = biological target: T1, recombinant human dopamine transporter; assay: [125I]RTI-55 binding, dopamine transporter in HEK 293 cells; conditions: for Ki: DOPAMINE [I125]-RTI-55 BINDING (Ki), HEK 293 cells; for potency at binding to the dopamine transporter and blocking dopamine reuptake: in words, compared with MPH / other samples
[4] = biological target: T3, recombinant human norepinephrine transporter (Homo sapiens, UniProt P23975); assay: biochemical; type: binding
T3 construct: expressed in transfected cells

[5] = biological target: T2, recombinant human serotonin transporter; assay: serotonin (5HT) reuptake inhibition in HEK 293 cells; type: cell-based; conditions: SEROTONIN 5HT REUPTAKE (IC50), HEK 293 cells
[6] = biological target: T3, recombinant human norepinephrine transporter; assay: cell-based
[7] = SEROTONIN [I125]-RTI-55 BINDING (Ki)
[8] = NOREPINEPHRINE [I125]-RTI-55 BINDING (Ki)
[9] = RS/SR racemates table, HEK 293 cells, read-out: NOREPINEPHRINE NE REUPTAKE (IC50)
[10] = RR/SS racemates table, HEK 293 cells, read-out: NOREPINEPHRINE NE REUPTAKE (IC50)
[11] = RS/SR racemates table, HEK 293 cells, read-out: SEROTONIN [I125]-RTI-55 BINDING (Ki)
[12] = RR/SS racemates table, HEK 293 cells, read-out: SEROTONIN [I125]-RTI-55 BINDING (Ki)
[13] = RS/SR racemates table, HEK 293 cells, read-out: NOREPINEPHRINE [I125]-RTI-55 BINDING (Ki)

T3 sequence (P23975 whole entry): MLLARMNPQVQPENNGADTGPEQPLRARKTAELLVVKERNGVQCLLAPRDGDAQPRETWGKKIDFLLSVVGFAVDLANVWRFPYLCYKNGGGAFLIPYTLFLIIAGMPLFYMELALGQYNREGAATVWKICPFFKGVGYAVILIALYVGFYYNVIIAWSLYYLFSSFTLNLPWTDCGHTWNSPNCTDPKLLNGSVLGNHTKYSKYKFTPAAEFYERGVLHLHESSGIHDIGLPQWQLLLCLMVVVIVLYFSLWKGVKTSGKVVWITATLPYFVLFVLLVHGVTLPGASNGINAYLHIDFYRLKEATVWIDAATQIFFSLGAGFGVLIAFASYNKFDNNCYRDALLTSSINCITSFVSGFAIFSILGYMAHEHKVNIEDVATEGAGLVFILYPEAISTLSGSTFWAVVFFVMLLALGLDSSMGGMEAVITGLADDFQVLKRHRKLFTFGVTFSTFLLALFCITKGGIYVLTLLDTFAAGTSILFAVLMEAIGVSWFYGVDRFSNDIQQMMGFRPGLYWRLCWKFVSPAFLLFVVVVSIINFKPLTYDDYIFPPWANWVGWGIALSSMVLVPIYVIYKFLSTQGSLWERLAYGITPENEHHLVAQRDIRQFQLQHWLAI
T2 sequence (P31645 whole entry): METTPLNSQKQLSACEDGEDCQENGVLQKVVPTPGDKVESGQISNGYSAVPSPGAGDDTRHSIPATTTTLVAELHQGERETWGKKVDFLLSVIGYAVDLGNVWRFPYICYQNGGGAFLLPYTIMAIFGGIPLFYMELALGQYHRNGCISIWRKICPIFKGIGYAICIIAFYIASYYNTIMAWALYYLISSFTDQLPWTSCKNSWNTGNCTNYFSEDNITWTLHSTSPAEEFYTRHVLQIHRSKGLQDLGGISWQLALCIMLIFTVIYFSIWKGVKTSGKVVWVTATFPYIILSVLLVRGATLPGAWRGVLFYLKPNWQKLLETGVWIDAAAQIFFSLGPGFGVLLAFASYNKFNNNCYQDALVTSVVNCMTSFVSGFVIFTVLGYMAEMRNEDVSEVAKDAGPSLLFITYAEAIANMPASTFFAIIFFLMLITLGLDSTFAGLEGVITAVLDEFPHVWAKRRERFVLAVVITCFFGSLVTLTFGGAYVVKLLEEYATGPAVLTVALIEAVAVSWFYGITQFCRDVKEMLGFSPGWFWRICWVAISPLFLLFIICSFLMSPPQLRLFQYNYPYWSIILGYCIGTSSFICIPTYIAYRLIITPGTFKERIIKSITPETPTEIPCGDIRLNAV
T1 sequence (Q01959 whole entry): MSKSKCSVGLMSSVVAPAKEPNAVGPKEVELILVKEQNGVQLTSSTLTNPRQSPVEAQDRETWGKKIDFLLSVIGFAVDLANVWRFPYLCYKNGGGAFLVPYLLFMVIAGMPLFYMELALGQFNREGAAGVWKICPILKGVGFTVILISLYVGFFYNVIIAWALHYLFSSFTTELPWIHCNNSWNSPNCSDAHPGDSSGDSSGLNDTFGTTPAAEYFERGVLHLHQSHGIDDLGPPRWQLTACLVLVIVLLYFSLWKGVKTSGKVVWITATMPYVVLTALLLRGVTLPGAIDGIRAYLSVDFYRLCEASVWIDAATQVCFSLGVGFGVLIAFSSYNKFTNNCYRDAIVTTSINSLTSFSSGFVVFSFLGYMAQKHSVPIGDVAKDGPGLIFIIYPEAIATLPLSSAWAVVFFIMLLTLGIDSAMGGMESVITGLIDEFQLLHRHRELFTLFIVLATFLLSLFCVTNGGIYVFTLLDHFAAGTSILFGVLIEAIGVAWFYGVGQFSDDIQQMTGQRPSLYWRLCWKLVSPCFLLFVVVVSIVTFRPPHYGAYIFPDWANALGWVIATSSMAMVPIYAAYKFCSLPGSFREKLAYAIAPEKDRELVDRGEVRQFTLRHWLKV

Row | SMILES | IC50 ([1]; RS/SR racemates table) [µM] | Ki [2, 7] [µM] | Ki ([3]; RS/SR racemates table) [µM] | Ki [4, 8] [µM] | IC50 ([1]; RR/SS racemates table) [µM] | NE/DA REUPTAKE [1] | IC50 ([5]; RR/SS racemates table) [µM] | IC50 ([6]; NORE[…] REUPTAKE (IC50)) [µM] | Ki ([3]; RR/SS racemates table) [µM] | IC50 ([5]; RS/SR racemates table) [µM] | also measured
1 | CC(C)C(c1ccc(Cl)cc1)C1CCCCN1 (single isomer, unassigned) [CC] | 0.99 ± 0.28 | > 10 | 0.9 ± 0.32 | > 10 |  |  |  |  |  |  | 
2 | CC(C)C(c1ccc(Cl)cc1)C1CCCCN1 (single isomer, unassigned) [C] |  | 5.3 ± 1.3 |  | 0.81 ± 0.17 | 0.032 ± 0.006 | 1.6 | 3.3 ± 0.4 | 0.051 ± 0.02 | 0.046 ± 0.016 |  | 
3 | CCCCC(c1ccc(Cl)cc1)C1CCCCN1 (single isomer, unassigned) [GG] | 0.17 ± 0.04 |  | 0.29 ± 0.07 |  |  |  |  |  |  |  | IC50 [6, 9]: 0.18 ± 0.16 µM; Ki ([4]; NOREPINEPHRINE [I125]-RTI-55 BINDING (Ki), RS/SR racemates table, HEK 293 cells): 1.6 ± 0.3 µM
4 | CCCCC(c1ccc(Cl)cc1)C1CCCCN1 (single isomer, unassigned) [G] |  |  |  |  | 0.0082 ± 0.0021 |  |  |  | 0.0078 ± 0.0011 |  | IC50 [6, 10]: 0.026 ± 0.007 µM; potency at binding to the dopamine transporter and blocking dopamine reuptake [3]: enhanced potency; also recorded: most potent; Ki ([4]; NOREPINEPHRINE [I125]-RTI-55 BINDING (Ki), RR/SS racemates table, HEK 293 cells): 0.23 ± 0.03 µM
5 | Clc1ccc(C(CC2CCCCC2)C2CCCCN2)cc1 (single isomer, unassigned) [HH] | 0.41 ± 0.06 |  | 0.26 ± 0.03 | 4.3 ± 0.2 |  |  |  | 1.7 ± 0.6 |  | 6.4 ± 1.3 | Ki [2, 11]: 3.7 ± 0.5 µM
6 | Clc1ccc(C(CC2CCCCC2)C2CCCCN2)cc1 (single isomer, unassigned) [H] |  |  |  | 4.2 ± 0.2 | 0.23 ± 0.07 | 4.1 | 1 ± 0.2 | 0.94 ± 0.14 | 0.13 ± 0.04 |  | Ki [2, 12]: 0.9 ± 0.4 µM
7 | Clc1ccc(C(CCc2ccccc2)C2CCCCN2)cc1 (single isomer, unassigned) [II] | 0.42 ± 0.14 | 1.84 ± 0.07 | 0.7 ± 0.09 | 2.4 ± 0.7 |  |  |  | 0.61 ± 0.15 |  | 2.1 ± 0.9 | 
8 | Clc1ccc(C(CCc2ccccc2)C2CCCCN2)cc1 (single isomer, unassigned) [I] |  | 0.64 ± 0.06 |  | 1.8 ± 0.6 | 0.16 ± 0.02 | 4.3 | 0.65 ± 0.219 | 0.68 ± 0.24 | 0.024 ± 0.009 |  | 
9 | Clc1ccc(C(Cc2ccccc2)C2CCCCN2)cc1 (single isomer, unassigned) [JJ] | 0.39 ± 0.06 | 4.3 ± 0.8 | 0.55 ± 0.06 | 4 ± 0.8 |  |  |  | > 0.8 |  | 4.7 ± 0.5 | 
10 | Clc1ccc(C(Cc2ccccc2)C2CCCCN2)cc1 (single isomer, unassigned) [J] |  | 1.1 ± 0.2 |  | 2.9 ± 0.8 | 0.37 ± 0.09 | 7.8 | 1.1 ± 0.2 | 2.9 ± 0.6 | 0.44 ± 0.11 |  | selectivity for the dopamine transporter over the norepinephrine transporter ([1]; in words, from binding and reuptake values): enhanced selectivity
11 | Clc1ccc(C(C2CCCC2)C2CCCCN2)cc1 (single isomer, unassigned) [KK] | 0.24 ± 0.03 |  | 0.69 ± 0.14 |  |  |  |  |  |  | 4.2 ± 0.9 | Ki [2, 11]: 4.6 ± 0.7 µM
12 | Clc1ccc(C(C2CCCC2)C2CCCCN2)cc1 (single isomer, unassigned) [K] |  |  |  |  | 0.027 ± 0.0083 |  | 4.6 ± 0.8 |  | 0.036 ± 0.01 |  | Ki [2, 12]: 5.7 ± 1.1 µM
13 | COC(=O)C(c1ccc(Cl)c(Cl)c1)C1CCCCN1 (single isomer, unassigned) [MM] | 0.8 ± 0.11 |  | 0.09 ± 0.014 |  |  |  |  |  |  | 1.1 ± 0.09 | Ki [2, 11]: 2.5 ± 0.42 µM; IC50 [6, 9]: 0.19 ± 0.05 µM; Ki [4, 13]: 4.2 ± 1.9 µM
14 | COC(=O)C(c1ccc(Cl)c(Cl)c1)C1CCCCN1 (single isomer, unassigned) [M] |  |  |  |  | 0.023 ± 0.003 | 0.43 | 0.54 ± 0.11 |  | 0.0014 ± 0.0001 |  | Ki [2, 12]: 1.6 ± 0.15 µM; IC50 [6, 10]: 0.01 ± 0.001 µM; Ki ([4]; RR/SS racemates table, HEK 293 cells, read-out: NOREPINEPHRINE [I125]-RTI-55 BINDING (Ki)): 0.014 ± 0.006 µM
15 | CC(C)CC(c1ccc(Cl)c(Cl)c1)C1CCCCN1C (single isomer, unassigned) [OO] | 0.045 ± 0.004 |  | 0.044 ± 0.012 |  |  |  |  |  |  | 2.4 ± 0.7 | Ki [2, 11]: 1.5 ± 0.3 µM; IC50 [6, 9]: 0.1 ± 0.019 µM; potency at binding to the dopamine transporter and blocking dopamine reuptake [3]: considerably more potent; also recorded: most potent; Ki [4, 13]: 0.66 ± 0.13 µM
